The text below walks through data of patent US9452185B2, “Mesenchymal stem cells and supports for tissue regeneration, repair and reconstruction” (THE TEXAS A&M UNIVERSITY SYSTEM, priority 2009, dated 2016).

“Also recorded” adds a separate entry of the source.

Common to all, as to assay type: cell-based, human
One assay has as its system hMSCs. Description: Alkaline phosphatase (ALP) activity of hMSCs in osteogenic media. The method, then:
For non-mineralizing osteogenic differentiation, hMSCs were plated in 12-well plates at 100 cells cm^−2. Upon reaching about 70% confluency, the media was changed to osteogenic base media (OBM) containing 50 μg mL^−1 ascorbic acid and 5 mM β-glycerol phosphate and either GW9662 or DMSO. Media was changed every 2 days for 8-10 days following measurement of ALP activity. For this purpose, the monolayer was washed with PBS and then with ALP reaction buffer (100 mM Tris-HCl, pH 9, containing 100 mM KCl and 1 mM MgCl2). One half mL of ALP buffer then 0.5 mL p-nitrophenol phosphate (PNPP) was rapidly added to the wells. ALP activity was measured as the rate of PNPP conversion to p-nitrophenolate by monitoring the absorbance at 405 nm every 30 seconds for 9 minutes using a plate reader. The rates were normalized against cell number and statistically analyzed using one-way analysis of variance (ANOVA) and Tukey post test for multiple comparisons or by Student's t-test, for single, unrelated comparisons.
Early osteogenic differentiation and alkaline phosphatase assays. MSCs were plated in 6-well plates at an initial plating density of 100 cells per cm^2 and cultured in standard complete media for 6 days until semi-confluence (approximately 5,000 cells per cm^2). Osteogenic base media consisting of complete media containing 5 mM β-GP and 50 μg mL^−1 ascorbate-2-phosphate and the appropriate inhibitor or vehicle was then used to induce early osteogenic differentiation. Assays were allowed to proceed for 8-10 days with changes of media every 2 days. ALP assays were performed as previously described (Gunn et al., 2006, Stem Cells 24:986-991).
(§1) In order to characterize the influence of 7AIPM on osteogenic differentiation, hMSC's from two donors were cultured as described elsewhere herein with the addition of varying concentrations of the compound or vehicle to the media. Samples of the media were collected daily for analysis. These samples were analyzed for the presence of OPG and Dkk-1 using ELISA. Alkaline phosphatase activity of the monolayers and cell numbers were measured using a spectrophotometer.

A further assay concerns osteoprotegerin (OPG). The experiment in a line: OPG secretion by ELISA. The note with it: 7AIPM in osteogenic culture. On the procedure: as §1, with “ELISAs. ELISA for CXCL6, Dkk-1, GROa, GRO13, and OPG were carried out by using nonbiotinylated polyclonal capture antibodies and biotinylated detection antibodies that were commercially acquired on coated 96-well plates The biotinylated […] antibodies were detected by using horseradish peroxidase-conjugated streptavidin and TMB substrate. ELISA for IL-lb were performed by using commercially acquired kits. In” for “In”

The next assay has as its system Dkk-1. Description: Dkk-1 secretion by ELISA. The note with it: 7AIPM in osteogenic culture. The method, then: as §1, with “ELISAs. ELISA for CXCL6, Dkk-1, GROa, GRO13, and OPG were carried out by using nonbiotinylated polyclonal capture antibodies and biotinylated detection antibodies that were commercially acquired on coated 96-well plates The biotinylated […] antibodies were detected by using horseradish peroxidase-conjugated streptavidin and TMB substrate. ELISA for IL-lb were performed by using commercially acquired kits. In” for “In”

On to 7-azaindolyl-pyrazinylmaleimide [7AIPM], for which, in the assay with hMSCs (MSC monolayers, osteogenic medium with increasing doses, four days), the ALP activity entry is “increased; also recorded: biphasic dose dependant effect”. In addition, the OPG concentration entry with osteoprotegerin (OPG) is “increased”. For the same substance, in the assay on Dkk-1, the Dkk-1 concentration result is listed as “decrease”.
Consider “Dldc-1: Wnt inhibitor added to block canonical Wnt signaling”, for which, in the assay with hMSCs (osteogenic media without dexamethasone, 8 days), the ALP activity entry was “attenuated”.
